“And” between values parts separate entries of the source, which are not always exact repeats. Equal entries are not always repeated. Toxic doses and inconclusive results are not listed. No stated cut-off is given here; in the data, active means T/C of 150% or more; inactive means T/C below 125%.
System: L1210 leukemia ip in BDF1 mice, survival T/C
Assay: NCI In Vivo Anticancer Drug Screen. Data for tumor model L1210 Leukemia (intraperitoneal) in B6D2F1 (BDF1) mice
Conditions: endpoint: mean survival time, higher = longer survival
Outline: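 Tumor cells were implanted, animals were treated, and survival was followed. The result divides the treated measurement by the vehicle-control measurement.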

[1] = dose: 50.0 mg/kg/injection, schedule: Q01DX001 (ip), vehicle: carboxymethylcellulose (CMC)
[2] = dose: 100.0 mg/kg/injection, schedule: Q01DX001 (ip), vehicle: carboxymethylcellulose (CMC)
[3] = dose: 200.0 mg/kg/injection, schedule: Q01DX001 (ip), vehicle: carboxymethylcellulose (CMC)
[4] = dose: 400.0 mg/kg/injection, schedule: Q01DX001 (ip), vehicle: carboxymethylcellulose (CMC)
[5] = dose: 100.0 mg/kg/injection, schedule: Q04DX003 (ip), vehicle: Klucel (hydroxypropylcellulose) (HPC)
[6] = dose: 200.0 mg/kg/injection, schedule: Q04DX003 (ip), vehicle: Klucel (hydroxypropylcellulose) (HPC)
[7] = dose: 400.0 mg/kg/injection, schedule: Q04DX003 (ip), vehicle: Klucel (hydroxypropylcellulose) (HPC)
[8] = dose: 100.0 mg/kg/injection, schedule: Q01DX001 (ip), vehicle: Klucel (hydroxypropylcellulose) (HPC)
[9] = dose: 200.0 mg/kg/injection, schedule: Q01DX001 (ip), vehicle: Klucel (hydroxypropylcellulose) (HPC)
[10] = dose: 100.0 mg/kg/injection, schedule: Q04DX003 (ip), vehicle: saline with Tween-80
[11] = dose: 200.0 mg/kg/injection, schedule: Q04DX003 (ip), vehicle: saline with Tween-80
[12] = dose: 400.0 mg/kg/injection, schedule: Q04DX003 (ip), vehicle: saline with Tween-80

Measured: T/C

C1N2CN3CN1CN(C2)C3
inactive: [1] 104 % of control | [2] 104 % of control | dose: 100.0 mg/kg/injection, schedule: Q04DX002 (ip), vehicle: saline 100 % of control | [3] 112 % of control | dose: 200.0 mg/kg/injection, schedule: Q04DX002 (ip), vehicle: saline 100 % of control | [4] 101 % of control | dose: 400.0 mg/kg/injection, schedule: Q04DX002 (ip), vehicle: saline 114 % of control

O=C(c1ccccc1)c1nnc(C(=O)c2ccccc2)nn1
inactive: [5] 102 % of control | [6] 100 % of control | [7] 93 % of control

c1ccc(-c2cc(-c3ccccc3)c(-c3ccccc3)o2)cc1
inactive: dose: 50.0 mg/kg/injection, schedule: Q01DX001 (ip), vehicle: Klucel (hydroxypropylcellulose) (HPC) 92 % of control | [8] 100 % of control | [9] 92 % of control

COc1ccc2c(c1)CCC1=C2CCC(C(=O)O)C1(C)C(=O)O (stereo not drawn)
inactive: [8] 97 % of control | [9] 108 % of control | dose: 400.0 mg/kg/injection, schedule: Q01DX001 (ip), vehicle: Klucel (hydroxypropylcellulose) (HPC) 92 % of control

O=[N+]([O-])c1ccc(N2CCCCC2)nc1
inactive: [1] 115 % of control | [2] 91 % of control | [3] 115 % of control | [4] 97 % of control

CN(C)c1ncnc2c1cnn2C
inactive: [2] 96 % of control | [3] 110 % of control

O=C(OCC(O)C1OC(c2ccccc2)OC1C(O)COC(=O)c1ccccc1)c1ccccc1 (stereo not drawn)
inactive: dose: 50.0 mg/kg/injection, schedule: Q04DX003 (ip), vehicle: saline with Tween-80 102 % of control | [10] 92 % of control and 91 % of control | [11] 105 % of control | [12] 89 % of control

O=C(/C(=N/O)c1ccccc1)c1ccccc1
inactive: dose: 50.0 mg/kg/injection, schedule: Q01DX001 (ip), vehicle: other 103 % of control | dose: 100.0 mg/kg/injection, schedule: Q01DX001 (ip), vehicle: other 97 % of control | dose: 200.0 mg/kg/injection, schedule: Q01DX001 (ip), vehicle: other 105 % of control | dose: 400.0 mg/kg/injection, schedule: Q01DX001 (ip), vehicle: other 100 % of control

C(/C=C/c1ccccc1)=C1c2ccccc2-c2ccccc21
inactive: dose: 100.0 mg/kg/injection, schedule: Q01DX009 (ip), vehicle: saline with Tween-80 88 % of control | [10] 90 % of control | dose: 200.0 mg/kg/injection, schedule: Q01DX009 (ip), vehicle: saline with Tween-80 98 % of control | [11] 93 % of control | dose: 400.0 mg/kg/injection, schedule: Q01DX009 (ip), vehicle: saline with Tween-80 96 % of control | [12] 95 % of control

OCCc1cc2ccccc2s1
inactive: [5] 107 % of control | [6] 103 % of control | [7] 113 % of control

Cc1ccc(NC(=O)Oc2cccnc2)cc1NC(=O)Oc1cccnc1
inactive: dose: 100.0 mg/kg/injection, schedule: Q01DX009 (ip), vehicle: Klucel (hydroxypropylcellulose) (HPC) 93 % of control | dose: 200.0 mg/kg/injection, schedule: Q01DX009 (ip), vehicle: Klucel (hydroxypropylcellulose) (HPC) 94 % of control

O=C(O)Cn1cc(Cl)cc(Cl)c1=O
inactive: dose: 100.0 mg/kg/injection, schedule: Q04DX002 (ip), vehicle: Klucel (hydroxypropylcellulose) (HPC) 107 % of control | dose: 200.0 mg/kg/injection, schedule: Q04DX002 (ip), vehicle: Klucel (hydroxypropylcellulose) (HPC) 107 % of control | dose: 400.0 mg/kg/injection, schedule: Q04DX002 (ip), vehicle: Klucel (hydroxypropylcellulose) (HPC) 96 % of control

O=C(Nc1cc(Cl)c(Cl)cc1NC(=O)C(Cl)(Cl)Cl)C(Cl)(Cl)Cl
inactive: dose: 5.0 mg/kg/injection, schedule: Q01DX001 (ip), vehicle: other 97 % of control | dose: 10.0 mg/kg/injection, schedule: Q01DX001 (ip), vehicle: other 100 % of control

CCCCCCCCCC(=O)CCCCCCC
inactive: dose: 25.0 mg/kg/injection, schedule: Q01DX009 (ip), vehicle: other 105 % of control | dose: 50.0 mg/kg/injection, schedule: Q01DX009 (ip), vehicle: other 102 % of control | dose: 100.0 mg/kg/injection, schedule: Q01DX009 (ip), vehicle: other 95 % of control and 97 % of control | dose: 400.0 mg/kg/injection, schedule: Q01DX009 (ip), vehicle: other 98 % of control

CCC(c1ccc2cc(OC)ccc2c1)C(CC(=O)O)C(=O)OC (stereo not drawn)
inactive: [5] 100 % of control | [6] 96 % of control | [7] 91 % of control

— PubChem BioAssay AID248 (DTP/NCI, 2004)
